Results on one molecule are retold here after patent US9884031B2, “Use of HDAC inhibitors for treatment of cardiac rhythm disorders” (THE TRUSTEES OF THE UNIVERSITY OF PENNSYLVANIA, priority 2007, dated 2018).

The subject of the test is connexin43. Kind of test: Immunoblot analysis of atrial connexin43. It is filed as in vivo, mouse. Conditions: WT, Hop and TSA-Hop mice, FIG. 3B. As for the experimental part:
Adult mouse atrium and ventricle were dissected and homogenized in buffer containing 1% Igepal surfactant, 0.5% deoxycholate sodium, 2% SDS, 5 mmol EDTA (pH=7.4), 1% protease inhibitor cocktail tablet (Roche) with and without phosphatase inhibitor cocktail (Sigma-Aldrich). Samples were cleared of debris by centrifugation at 5000 g for 10 min. and the protein concentration was determined using a BCA protein assay kit (Pierce). Protein samples were run on a 4-12% gradient pre-cast SDS-PAGE gel (Invitrogen), and after electrophoresis were transferred onto PVDF membranes (Millipore) using 0.1% acetic acid/10% methanol as a transfer buffer. Membranes were incubated with primary antibodies in 5% milk and PBS overnight at 4° C. and then washed for 5 min, 4 times with TBS-T solution. […] Results were visualized by enhanced chemiluminescence using a commercially available kit (Western Breeze, Invitrogen) and data were recorded on BioMax-MR film (Kodak, Rochester, N.Y.). Densitometry was determined using the Image-J software package (National Institutes of Health). […]
In general terms: In western blotting, separated proteins are transferred to a membrane and probed.

Take `CC(/C=C/C(=O)NO)=C\[C@@H](C)C(=O)c1ccc(N(C)C)cc1` [TSA, Trichostatin A]: the “Atrial connexin43 expression” value is recorded as “no changes”.
